Measurements from US9487818B2, “TOP2A inhibition by temozolomide and its predictive value of GBM patients survival” (COUNCIL OF SCIENTIFIC & INDUSTRIAL RESEARCH, priority 2010, dated 2016).

How the values were obtained:
GBM patients = assay: Prospective cohort of GBM patients, survival (Kaplan Meier analysis); format: in vivo, human; details: for median survival: radiotherapy with temozolomide
Procedure: Kaplan-Meier survival estimates for 102 GBM patients are calculated for TOP2A transcript levels. Survival curves for the groups positive (log 2 ratio≧9.25; n=34) and negative (log 2 ratio<9.25; n=68) for TOP2A in univariate analysis.
Newly diagnosed glioblastoma patients (n=102) who underwent surgery in the two clinical centers (NIMHANS/SSIHMS) were prospectively included. Approval by the ethics committee and patient consent were obtained prior to initiation of the study. The patients were recruited based on the following inclusion criteria: 1) Adult patients (age between 18 to 65 years) with a supratentorial lobar tumor 2) Patients who underwent maximal safe resection of the tumor with minimal residue noted on post operative MRI scan 3) Patients with post operative Karnofsky's Performance Score (KPS)≧70.
All patients underwent maximal safe resection of the tumor. All patients underwent uniform adjuvant therapy consisting of radiotherapy, administered with a total dose of 59.4 Gy, given in 33 fractions, along with concomitant chemotherapy with temozolamide, administered at the dose of 100 mg/day which was continued daily for 45 days. Subsequently, five cycles of cyclical chemotherapy with temozolamide at the dose of 150 mg/sq. m body surface area for 5 days every 28 days was administered. The patients were followed up clinically and with MR imaging. The maximum follow up period was 34 months.
A cohort of 102 patients of GBM were prospectively recruited and managed by standard treatment protocol (as explained in methods). […] In this cohort, as expected, age was an important predictor of poor outcome as noted by Cox regression analysis (p=0.037; HR=1.023; B=0.022). […] The effect of TOP2A transcript level and age on survival was further evaluated by Cox proportional hazard model to elicit the independent effect of TOP2A on survival. It was noted that both age (p=0.033; HR=1.023; B=0.023) and TOP2A transcript level (p=0.035; HR=0.888; B=−0.119) were significant predictors by multivariate analysis. […]

U251 glioma cells = assay: Cell viability (MTT) assay in U251 cells transfected with TOP2A or cyclophilin siRNA; format: cell-based; details: MTT assay after 48 hrs
Procedure: At test for difference in the % viability of the control and TOP2A siRNA treated cells was estimated and the p values are shown: 2, 4, 8 and 16 μg/mL; p=0.0297, 0.0336, <0.0001 and 0.042 respectively.
The experiment was carried out as in “D” but the cells were treated with temozolomide. At test for difference in the % viability of the control and TOP2A siRNA treated cells was estimated and the p values are shown: 250, 500, 1000 and 2000 μM; p=0.0668, 0.0097, 0.0687 and 0.0134 respectively.
U373, U138, LN18, LN229, U343, U87, K562, U251 and SVG cells were cultured in DMEM respectively with 10% Fetal bovine serum, penicillin and streptomycin at 37° C. in a humidified atmosphere with 5% CO2. The human TOP2A and cyclophilin siRNA duplexes were designed and chemically synthesized by Dharmacon Research (Lafayette, Colo.). The SMARTpool siRNA is a mixture of four different siRNA duplexes targeting distinct coding region sequences of TOP2A (Genbank™ accession number NM_001067). […]
For chemosensitivity assays, 24 hours after plating, the cells were treated with the cytotoxic drugs and incubated at 37° C., 5% CO2 for 45 hours. […] Three hours after MTT addition, the formazan crystals were dissolved in DMSO (200 μl) and measured as absorbance at 550 nm. The absorbance by the control cells was considered to be 100% and all samples were normalized to the control cells. […]

Structure (SMILES)	median overall survival (GBM patients; 102 GBM patients, resection, radiotherapy with concomitant and cyclical adjuvant temozolomide)	median survival (GBM patients; patients with TOP2A mRNA levels <9.25 log 2 ratio)	median survival (GBM patients; patients with TOP2A mRNA levels ≧9.25 log 2 ratio)	sensitivity of TOP2A siRNA transfected cells in comparison to cyclophilin siRNA transfected cells (U251 glioma cells)
Cn1nnc2c(C(N)=O)ncn2c1=O [temozolomide]	16 months	13 months	22 months	
COc1cc([C@@H]2c3cc4c(cc3[C@@H](O[C@@H]3O[C@@H]5CO[C@@H](C)O[C@H]5[C@H](O)[C@H]3O)[C@H]3COC(=O)[C@H]23)OCO4)cc(OC)c1O [etoposide]				less efficiently
